# In patent publication WO2019242687A1, “1,3-dioxane-4,6-dione compound, and preparation method, pharmaceutical composition, and application thereof” (Shanghai Institute of Materia Medica of CAS, priority 2018, dated 2018):
# Target: T1, SIRT1 F414A (Homo sapiens, UniProt Q96EB6, F414A)
# T1 construct: made in house
# T1 sequence (Q96EB6 1-747 F414A): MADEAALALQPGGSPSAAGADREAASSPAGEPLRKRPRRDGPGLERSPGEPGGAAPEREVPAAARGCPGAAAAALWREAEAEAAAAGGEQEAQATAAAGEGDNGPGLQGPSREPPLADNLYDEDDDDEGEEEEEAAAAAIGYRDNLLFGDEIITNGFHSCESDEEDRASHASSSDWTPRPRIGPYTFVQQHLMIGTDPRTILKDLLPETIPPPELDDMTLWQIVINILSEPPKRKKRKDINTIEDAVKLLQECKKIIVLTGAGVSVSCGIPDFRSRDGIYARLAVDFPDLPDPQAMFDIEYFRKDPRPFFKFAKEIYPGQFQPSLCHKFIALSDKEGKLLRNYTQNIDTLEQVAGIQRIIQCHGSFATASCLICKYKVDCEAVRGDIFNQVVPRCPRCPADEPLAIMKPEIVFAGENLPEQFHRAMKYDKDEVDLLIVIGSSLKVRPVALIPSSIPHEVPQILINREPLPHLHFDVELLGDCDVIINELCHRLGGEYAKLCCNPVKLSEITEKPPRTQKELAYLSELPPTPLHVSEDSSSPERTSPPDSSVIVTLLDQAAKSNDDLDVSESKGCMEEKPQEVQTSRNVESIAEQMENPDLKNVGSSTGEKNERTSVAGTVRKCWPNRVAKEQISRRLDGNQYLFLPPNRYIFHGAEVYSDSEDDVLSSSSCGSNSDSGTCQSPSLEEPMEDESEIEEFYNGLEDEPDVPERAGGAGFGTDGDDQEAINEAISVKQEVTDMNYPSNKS
# Assay: Inhibitory constant on SIRT1 mutant F414A
# Assay type: biochemical
structure (smiles),measurement,setting,value
"COc1cc(C=C2C(=O)OC(c3ccccc3)OC2=O)cc(Br)c1O (centres unmarked) [Compound S3, 5-(3-bromo-4-hydroxy-5-methoxybenzylidene) -2-phenyl-1,3-dioxane-4,6-dione]",Ki,,25.5 µM
same,effect of mutation on inhibitory activity of compound,compared with the other mutants,影响最大
